Source: ChEMBL document CHEMBL1156221, “A-ring modifications on the triazafluorenone core structure and their mGluR1 antagonist properties” (Bioorg Med Chem Lett, 2010)

Legend:
[1] = target: Metabotropic glutamate receptor 1 (Homo sapiens, UniProt Q13255); experiment: Antagonist activity at human mGluR1; format: functional
[2] = target: Metabotropic glutamate receptor 5 (Homo sapiens, UniProt P41594); experiment: Antagonist activity at human mGluR5; format: functional
[3] = Drug level in rat brain at 10 mg/kg, po after 6 hrs; format: ADME, organism-based; parameters: dose 10 mg/kg, route oral; conditions: read-out: Drug uptake
[4] = AUC in rat at 10 mg/kg, po by LC/API-MS/MS; format: ADME, organism-based; parameters: dose 10 mg/kg, route oral; conditions: plasma
[5] = in vivo; conditions: rat, brain/plasma, po, 10 mg/kg
Description: Ratio of drug level in brain to plasma in rat at 10 mg/kg, po

[6] = target: Metabotropic glutamate receptor 1 (Rattus norvegicus, UniProt P23385); experiment: Antagonist activity at rat mGluR1; format: functional
Metabotropic glutamate receptor 1 (Rattus norvegicus, UniProt P23385), sequence (P23385 whole entry, looked up): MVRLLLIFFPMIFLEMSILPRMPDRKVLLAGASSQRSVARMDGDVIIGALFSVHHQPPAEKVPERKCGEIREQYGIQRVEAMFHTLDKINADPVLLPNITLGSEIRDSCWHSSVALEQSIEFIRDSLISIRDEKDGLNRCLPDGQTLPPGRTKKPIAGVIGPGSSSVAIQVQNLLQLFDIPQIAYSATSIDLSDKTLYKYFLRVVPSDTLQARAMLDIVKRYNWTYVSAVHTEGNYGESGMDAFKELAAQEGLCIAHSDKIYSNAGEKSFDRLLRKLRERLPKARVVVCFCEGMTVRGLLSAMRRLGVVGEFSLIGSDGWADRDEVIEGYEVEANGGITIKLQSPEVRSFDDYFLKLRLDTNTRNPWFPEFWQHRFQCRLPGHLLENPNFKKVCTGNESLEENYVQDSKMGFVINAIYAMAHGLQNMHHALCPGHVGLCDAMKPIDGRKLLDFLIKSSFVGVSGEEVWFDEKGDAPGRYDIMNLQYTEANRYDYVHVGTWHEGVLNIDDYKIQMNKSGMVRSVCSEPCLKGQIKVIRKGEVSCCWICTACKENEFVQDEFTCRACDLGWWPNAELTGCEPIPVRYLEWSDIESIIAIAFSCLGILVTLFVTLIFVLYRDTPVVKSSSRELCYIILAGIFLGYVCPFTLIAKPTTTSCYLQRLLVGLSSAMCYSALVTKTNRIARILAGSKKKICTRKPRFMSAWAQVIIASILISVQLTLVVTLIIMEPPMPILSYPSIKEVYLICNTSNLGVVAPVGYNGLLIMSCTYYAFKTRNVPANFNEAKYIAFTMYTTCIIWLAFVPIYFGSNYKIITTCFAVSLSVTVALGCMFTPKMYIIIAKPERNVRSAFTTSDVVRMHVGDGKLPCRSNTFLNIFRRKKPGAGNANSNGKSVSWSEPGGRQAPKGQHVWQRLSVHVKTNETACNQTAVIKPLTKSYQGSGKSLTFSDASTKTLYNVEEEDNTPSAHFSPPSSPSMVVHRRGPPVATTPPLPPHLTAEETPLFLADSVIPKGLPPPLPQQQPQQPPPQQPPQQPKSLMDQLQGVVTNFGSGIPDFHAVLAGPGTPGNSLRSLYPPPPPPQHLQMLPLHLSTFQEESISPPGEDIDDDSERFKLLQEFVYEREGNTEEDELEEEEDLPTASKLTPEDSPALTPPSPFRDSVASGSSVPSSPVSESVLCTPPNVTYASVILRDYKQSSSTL

[7] = target: Metabotropic glutamate receptor 1 (Rattus norvegicus); experiment: Antagonist activity at rat mGluR1

Metabotropic glutamate receptor 1 (Homo sapiens, UniProt Q13255), sequence (Q13255 whole entry): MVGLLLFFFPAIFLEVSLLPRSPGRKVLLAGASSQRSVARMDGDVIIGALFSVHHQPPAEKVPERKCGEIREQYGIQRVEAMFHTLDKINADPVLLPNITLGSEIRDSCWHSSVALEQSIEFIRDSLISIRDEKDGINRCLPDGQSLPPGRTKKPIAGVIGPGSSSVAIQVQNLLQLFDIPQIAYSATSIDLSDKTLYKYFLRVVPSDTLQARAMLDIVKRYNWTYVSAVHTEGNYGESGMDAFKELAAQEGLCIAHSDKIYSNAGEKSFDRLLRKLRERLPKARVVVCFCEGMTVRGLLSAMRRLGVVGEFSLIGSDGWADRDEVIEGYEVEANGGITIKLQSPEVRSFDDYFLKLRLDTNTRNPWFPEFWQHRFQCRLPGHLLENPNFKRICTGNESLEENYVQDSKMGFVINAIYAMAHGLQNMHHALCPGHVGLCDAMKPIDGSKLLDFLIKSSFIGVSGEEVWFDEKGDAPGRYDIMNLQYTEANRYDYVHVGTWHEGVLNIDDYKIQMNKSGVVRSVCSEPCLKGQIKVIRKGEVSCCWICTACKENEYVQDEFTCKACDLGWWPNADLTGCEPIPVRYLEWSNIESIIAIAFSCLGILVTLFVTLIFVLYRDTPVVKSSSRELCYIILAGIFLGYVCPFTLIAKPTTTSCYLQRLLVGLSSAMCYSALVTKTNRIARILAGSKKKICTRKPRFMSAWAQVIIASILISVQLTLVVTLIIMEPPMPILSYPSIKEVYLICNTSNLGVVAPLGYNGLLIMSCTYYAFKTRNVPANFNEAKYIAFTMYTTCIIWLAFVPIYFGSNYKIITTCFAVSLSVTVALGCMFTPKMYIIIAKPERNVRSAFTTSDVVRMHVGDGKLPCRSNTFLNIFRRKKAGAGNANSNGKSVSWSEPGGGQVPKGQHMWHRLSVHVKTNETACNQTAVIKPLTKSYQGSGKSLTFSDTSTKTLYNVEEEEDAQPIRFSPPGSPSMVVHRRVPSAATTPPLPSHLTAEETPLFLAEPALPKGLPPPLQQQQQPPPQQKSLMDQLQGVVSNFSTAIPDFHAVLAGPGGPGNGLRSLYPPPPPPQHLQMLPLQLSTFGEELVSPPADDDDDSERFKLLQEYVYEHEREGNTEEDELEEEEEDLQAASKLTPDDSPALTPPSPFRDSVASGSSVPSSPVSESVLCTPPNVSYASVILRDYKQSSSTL
Metabotropic glutamate receptor 5, sequence (P41594 whole entry): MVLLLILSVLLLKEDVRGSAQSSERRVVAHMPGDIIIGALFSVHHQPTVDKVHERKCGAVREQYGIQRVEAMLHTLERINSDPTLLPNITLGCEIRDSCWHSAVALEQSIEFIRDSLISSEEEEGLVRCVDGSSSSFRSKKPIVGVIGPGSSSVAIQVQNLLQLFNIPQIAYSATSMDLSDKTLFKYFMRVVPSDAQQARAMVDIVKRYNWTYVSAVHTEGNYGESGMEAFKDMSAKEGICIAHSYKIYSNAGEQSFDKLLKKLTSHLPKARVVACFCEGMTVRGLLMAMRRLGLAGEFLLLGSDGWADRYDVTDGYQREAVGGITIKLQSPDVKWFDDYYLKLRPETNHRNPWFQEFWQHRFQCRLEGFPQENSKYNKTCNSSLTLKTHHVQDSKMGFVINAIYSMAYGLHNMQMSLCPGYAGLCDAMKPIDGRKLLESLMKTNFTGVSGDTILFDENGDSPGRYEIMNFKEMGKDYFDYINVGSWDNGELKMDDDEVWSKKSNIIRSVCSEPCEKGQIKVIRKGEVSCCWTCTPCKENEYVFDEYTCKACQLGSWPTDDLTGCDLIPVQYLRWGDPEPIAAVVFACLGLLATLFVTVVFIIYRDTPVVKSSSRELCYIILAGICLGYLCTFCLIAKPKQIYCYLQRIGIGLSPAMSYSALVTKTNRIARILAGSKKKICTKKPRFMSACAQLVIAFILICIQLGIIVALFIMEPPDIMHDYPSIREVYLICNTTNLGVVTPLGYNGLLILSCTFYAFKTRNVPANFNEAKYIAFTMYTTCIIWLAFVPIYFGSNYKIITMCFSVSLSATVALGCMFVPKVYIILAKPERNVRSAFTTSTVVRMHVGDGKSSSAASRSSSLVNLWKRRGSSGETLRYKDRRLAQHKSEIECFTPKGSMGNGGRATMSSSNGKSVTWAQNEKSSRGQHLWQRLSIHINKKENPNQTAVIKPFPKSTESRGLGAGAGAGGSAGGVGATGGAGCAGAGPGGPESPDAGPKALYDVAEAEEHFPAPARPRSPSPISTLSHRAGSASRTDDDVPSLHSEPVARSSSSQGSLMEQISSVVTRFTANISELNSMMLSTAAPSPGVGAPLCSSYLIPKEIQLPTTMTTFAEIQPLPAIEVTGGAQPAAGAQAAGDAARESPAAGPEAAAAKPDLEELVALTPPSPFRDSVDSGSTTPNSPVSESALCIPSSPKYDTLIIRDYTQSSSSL

Cc1nc(N)c2c(n1)sc1c(=O)n(-c3ccc(Cl)cc3)cnc12
IC50 [1]: 11 nM | IC50 [2]: > 3000 nM

COc1ccc(-n2cnc3c(sc4nccc(N(C)C)c43)c2=O)cc1
IC50 [2]: > 3000 nM

Cc1nc(N)c2c(n1)sc1c(=O)n(-c3ccc(F)cc3)cnc12
IC50 [1]: 68 nM | IC50 [2]: > 3000 nM

Cc1ccc(-n2cnc3c(sc4[nH]c(=O)nc(N)c43)c2=O)cc1
IC50 [1]: > 1000 nM | IC50 [2]: > 3000 nM

Cc1ccc(-n2cnc3c(sc4nc(N)nc(N)c43)c2=O)cc1
concentration at 6 h [3]: 100 ng/g | AUC [4]: 965 ng·h/mL | Kp [5]: 0.9 | IC50 [2]: > 3000 nM

Cc1ccc(-n2cnc3c(sc4nc(C(F)(F)F)nc(N)c43)c2=O)cc1
IC50 [1]: > 1000 nM | IC50 [2]: > 3000 nM

COc1ccc(-n2cnc3c(sc4nc(C)nc(N)c43)c2=O)cc1
IC50 [1]: 188 nM | IC50 [2]: > 3000 nM

Cc1nc(N)c2c(n1)sc1c(=O)n(-c3ccccc3)cnc12
IC50 [1]: 16 nM | IC50 [2]: > 3000 nM

Cc1ccc(-n2cnc3c(sc4nc(-n5cccc5)nc(N)c43)c2=O)cc1
IC50 [1]: > 1000 nM | IC50 [2]: > 3000 nM

CNc1nc(N)c2c(n1)sc1c(=O)n(-c3ccc(C)cc3)cnc12
IC50 [1]: > 1000 nM | IC50 [2]: > 3000 nM

Cc1ccc(-n2cnc3c(sc4nc(C5CC5)nc(N)c43)c2=O)cc1
IC50 [1]: 326 nM | IC50 [2]: > 3000 nM

Cc1ccc(-n2cnc3c(sc4nc(C)nc(N)c43)c2=O)cc1
Ki [6]: 115 nM | IC50 [1]: 27 nM | Ki [7]: 115 nM | concentration at 6 h [3]: 29 ng/g | AUC [4]: 2110 ng·h/mL | Kp [5]: 0.2 | IC50 [2]: > 3000 nM

Cc1ccc(-n2cnc3c(sc4nc(S)nc(N)c43)c2=O)cc1
IC50 [1]: 3.1 nM | IC50 [2]: > 3000 nM
